Patent publication US11766470B2, “Manufacture, formulation and dosing of apraglutide” (VectivBio AG, priority 2020, dated 2023)
Square brackets hold non-standard residues; d marks the D form. Peptide text beside a SMILES is read from it. ξ: configuration not given here. Ile(3ξ) = CCC(C)[C@H](N)C(=O)O; Thr(3ξ) = CC(O)[C@H](N)C(=O)O; Nle = CCCC[C@H](N)C(=O)O

Test system: patients with SBS-IF
Experiment: Phase 2 placebo-controlled crossover trial in SBS-IF patients (Example 5): urine output, urine sodium, PS volume, oral fluid intake, hydration parameters, plasma L-citrulline, body composition
Assay type: in vivo, human
Description: The following non-limiting example describes results from a Phase 2 clinical trial in which subjects with SBS-IF were treated with the apraglutide formulations of the present disclosure. This Phase 2 trial investigated the safety and efficacy of 5 and 10 mg apraglutide in patients with SBS-IF.
Eight adult patients with SBS-IF were treated with apraglutide compositions of the present disclosure according to Table 6. Briefly, patients with SBS-IF were administered 5 mg apraglutide of the present disclosure or placebo once a week for four weeks. The patients were then administered 10 mg apraglutide of the present disclosure once a week for four weeks. Additionally, there was a washout period of 6-10 weeks between treatments.
The trial described in Example 5 was a double-blind, crossover, randomized, placebo-controlled, phase 2 trial followed by an additional treatment period in an open-label regimen. Eight adult patients (aged ≥18 to ≤80 years) with SBS-IF were enrolled in the trial. Patient eligibility was assessed during a screening visit. The main inclusion criteria were: Patients with SBS secondary to surgical resection of the small bowel with a jejuno- or ileostomy, at least 6 months since last bowel resection, a fecal output of at least 1500 g/day as recorded within the last 18 months, and PS-infusions≥3 times per week for ≥12 months according to the patient's medical record. Patients were excluded, if they had clinical signs of activity in inflammatory bowel disease, a history of cancer within ≤5 years or an inadequate hepatic, kidney, or heart function. Patients were also excluded, if they had received native GLP-2 or a GLP-2 analogue within the last 3 months.
The procedures during each treatment period were consistent.
Efficacy assessments were performed for each treatment period of 29 days. Patients received a paper diary for recording PS volume administration, urine collections and oral fluid intakes at specific time points. Patients performed home 48-hour urine collections at baseline (day −2 to 1), immediately after first treatment injection (day 1 to 3), and at the end of the treatment period (day 27-29, […] after the fourth administration of the trial drug). Urine was collected by the patient in a urine container with volume markings and 48-hour urine volumes were reported in the diary. After completing the 48-hour collection, patients transferred approximately 100 mL of urine from the container to a sample which was delivered at the next patient visit. The amount of sodium excreted per 48 hours was then calculated as the concentration of sodium in the sample multiplied by the total volume of urine collected. During each urine collection, weekly PS volume and content and daily oral fluid intake were kept constant. Since they were kept constant, increases in urine volume were a sign of increased fluid absorption. […] Patients were to adhere to their drinking menu during each urine collection and the concomitant 48-hour oral fluid intake was reported in the diary during each urine collection.
On day 20-22, patients were informed to record their spontaneous oral fluid intake during 48 hours. This measurement was included to investigate whether increased intestinal absorption was associated with a decrease in their spontaneous oral fluid intake.
Between day 4 and 24, PS volume reductions were allowed if deemed clinically necessary by the investigator. […] PS volume reductions were assessed during day 20-22. Patients returned to their baseline PS volume and content during the end of the treatment urine collection (day 27-29). Concomitant medications including proton-pump inhibitors, loperamide, and opiates were kept unchanged and stable throughout the trial. If necessary, adjustments could be made in the drinking menu and prescribed PS volume and content between treatment periods based on discussions between the patient and the investigator.
Body weight was measured using a levelled platform scale. […]

[1] = 5 mg vs 10 mg, Part A+B, day 1-3 after first injection
[2] = 5 mg vs 10 mg, Part A+B, day 20-22
[3] = 5 mg vs 10 mg, Part A+B, day 27-29
[4] = 5 mg vs 10 mg, Part A+B, end of treatment
[5] = 5 mg vs placebo, Part A+B, day 1-3 after first injection
[6] = 5 mg vs placebo, Part A+B, day 20-22
[7] = 5 mg vs placebo, Part A+B, day 27-29
[8] = 5 mg vs placebo, Part A+B, day 27-29, listed as Apraglutide
[9] = 5 mg vs placebo, Part A+B, end of treatment

CCCC[C@H](NC(=O)[C@H](CCC(=O)O)NC(=O)[C@H](CC(=O)O)NC(=O)[C@H](CO)NC(=O)[C@H](Cc1ccccc1)NC(=O)[C@H](CO)NC(=O)CNC(=O)[C@H](CC(=O)O)NC(=O)CNC(=O)[C@@H](N)Cc1c[nH]cn1)C(=O)N[C@H](Cc1ccccc1)C(=O)N[C@H](C(=O)N[C@H](C(=O)N[C@@H](CC(C)C)C(=O)N[C@@H](CC(=O)O)C(=O)N[C@@H](CC(C)C)C(=O)N[C@@H](CC(C)C)C(=O)N[C@@H](C)C(=O)N[C@@H](C)C(=O)N[C@@H](CCCNC(=N)N)C(=O)N[C@@H](CC(=O)O)C(=O)N[C@@H](Cc1ccccc1)C(=O)N[C@H](C(=O)N[C@@H](CC(N)=O)C(=O)N[C@@H](Cc1c[nH]c2ccccc12)C(=O)N[C@@H](CC(C)C)C(=O)N[C@H](C(=O)N[C@@H](CCC(N)=O)C(=O)N[C@H](C(=O)N[C@@H](CCCCN)C(=O)N[C@H](C(=O)N[C@H](C(=O)N[C@@H](CC(=O)O)C(N)=O)C(C)O)C(C)CC)C(C)O)C(C)CC)C(C)CC)C(C)CC)C(C)O (stereo partly drawn) [apraglutide, L-histidyl-glycyl-L-aspartyl-glycyl-L-seryl-L-phenylalanyl-L-seryl-L-aspartyl-L-glutamyl-L-norleucyl-D-phenylalanyl-L-threonyl-Lisoleucyl-L-leucyl-L-aspartyl-L-leucyl-L-leucyl-L-alanyl-L-alanyl-L-arginyl-L-aspartyl-L-phenylalanyl-L-isoleucyl-L-asparaginyl-Ltryptophanyl-L-leucyl-L-isoleucyl-L-glutaminyl-L-threonyl-L-lysyl-L-isoleucyl-L-threonyl-Laspartic acid amide] (H-HGDGSFSDE[Nle][dF][Thr(3ξ)][Ile(3ξ)]LDLLAARDF[Ile(3ξ)]NWL[Ile(3ξ)]Q[Thr(3ξ)]K[Ile(3ξ)][Thr(3ξ)]D-NH2)
Patients with increased relative urine volume output compared to placebo (exceeding 10%) (5 mg): 6 out of 8 | Absolute urine output, adjusted mean change from baseline [1]: −26 (−462 to 409); mL/day | Relative urine output, adjusted mean change from baseline [1]: −12 (−43 to 19); % | Urine sodium excretion (%), adjusted mean change from baseline [1]: −43(−149 to 63); % | Urine sodium excretion, adjusted mean change from baseline [1]: −1 (−22 to 20); mmol/day | Oral fluid intake, adjusted mean change from baseline [2]: −119 (−396 to 157); mL/day | PS volume, adjusted mean change from baseline [2]: −380 (−851 to 91); mL/day | Relative PS volume, adjusted mean change from baseline [2]: −15 (−38 to 9); % | Relative oral fluid intake, adjusted mean change from baseline [2]: −7 (−17 to 3); % | Absolute urine output, adjusted mean change from baseline [3]: 84 (−514 to 682); mL/day | Relative urine output, adjusted mean change from baseline [3]: −14 (−51 to 23); % | Urine sodium excretion (%), adjusted mean change from baseline [3]: 266 (−266 to 798); % | Urine sodium excretion, adjusted mean change from baseline [3]: 32 (−37 to 101); mmol/day | Albumin, adjusted mean change from baseline [4]: 1.0 (−0.8 to 2.9); g/L | Aldosterone, adjusted mean change from baseline [4]: −151 (−3,570 to 3,268); pmol/L | Body weight, adjusted mean change from baseline [4]: −0.6 (−2.4 to 1.3); kg | Bone mineral content, adjusted mean change from baseline [4]: 12 (−57 to 82); g | CO2 total, adjusted mean change from baseline [4]: 1.0 (−1.4 to 3.4); mmol/L | Creatinine, adjusted mean change from baseline [4]: 4.6 (−12.3 to 21.5); umol/L | Fat body mass, adjusted mean change from baseline [4]: −1.44 (−2.92 to 0.04); kg | Hematocrit, adjusted mean change from baseline [4]: −0.4 (−1.2 to 0.4); vol/fr | Lean body mass, adjusted mean change from baseline [4]: 0.12 (−3.00 to 3.24); kg | Plasma L-citrulline, adjusted mean change from baseline [4]: −3.6 (−19.8 to 12.6); μmol/L | Protein, adjusted mean change from baseline [4]: −0.3 (−4.5 to 3.9); g/L | Relative body weight, adjusted mean change from baseline [4]: −1 (−4 to 2); % | Relative bone mineral content, adjusted mean change from baseline [4]: 0 (−3 to 3); % | Relative fat body mass, adjusted mean change from baseline [4]: −7 (−16 to 1); % | Relative lean body mass, adjusted mean change from baseline [4]: −0 (−8 to 7); % | Relative plasma L-citrulline, adjusted mean change from baseline [4]: −23 (−74 to 29); % | Urea, adjusted mean change from baseline [4]: 0.3 (−1.3 to 1.9); mmol/L | Fluid composite effect, estimated difference between the two doses (5 mg vs 10 mg, post-hoc, Part A+B): 594 | Absolute urine output, adjusted mean change from baseline [5]: −38 (−456 to 381); mL/day | Relative urine output, adjusted mean change from baseline [5]: 6 (−24 to 35); % | Urine sodium excretion (%), adjusted mean change from baseline [5]: 65 ( −36 to 166); % | Urine sodium excretion, adjusted mean change from baseline [5]: 3 (−17 to 23); mmol/day | PS volume, adjusted mean change from baseline [6]: −89 (−543 to 366); mL/day | Relative PS volume, adjusted mean change from baseline [6]: −13 (−36 to 9); % | Relative oral fluid intake, adjusted mean change from baseline [6]: −9 (−18 to 1); % | Absolute urine output, adjusted mean change from baseline [7]: 711 (132 to 1,289); mL/day | Relative urine output, adjusted mean change from baseline [7]: 48 (12 to 84); % | Urine sodium excretion (%), adjusted mean change from baseline [7]: 166 (−342 to 675); % | Urine sodium excretion, adjusted mean change from baseline [7]: 56 (−10 to 123); mmol/day | Absolute urine output, adjusted mean change from baseline [8]: 711 mL/day | Relative urine output, adjusted mean change from baseline [8]: 48% | Urine sodium excretion, adjusted mean change from baseline [8]: 56 mmol/day | Albumin, adjusted mean change from baseline [9]: −0.0 (−1.8 to 1.8); g/L | Body weight, adjusted mean change from baseline [9]: 1.9 (0.1 to 3.7); kg | Bone mineral content, adjusted mean change from baseline [9]: −4 (−73 to 66); g | CO2 total, adjusted mean change from baseline [9]: 0.3 (−2.0 to 2.6); mmol/L | Creatinine, adjusted mean change from baseline [9]: −9.7(−25.8 to 6.4); umol/L | Fat body mass, adjusted mean change from baseline [9]: 1.77 (0.29 to 3.24); kg | Hematocrit, adjusted mean change from baseline [9]: 0.6 (−0.2 to1.4); vol/fr | Lean body mass, adjusted mean change from baseline [9]: 0.64 (−2.49 to 3.77); kg | Plasma L-citrulline, adjusted mean change from baseline [9]: 17.6 (2.0 to 33.2); μmol/L | Protein, adjusted mean change from baseline [9]: −0.4 (−4.2 to 3.4); g/L
